Assay results: US20080274096A1, “Fusion Proteins Having a Modulated Half-Life in Plasma” (ASTRAZENECA AB, priority 2005, published 2008)

What was measured:
Format in all cases: biochemical
[1] = target: T1, Human recombinant Neprilysin (Homo sapiens, UniProt P08473); test: Inhibition of Neprilysin degradation of amyloid β1-40 peptide in buffer; design: Degradation of Amyloid β Peptide by Soluble Neprilysin; purchased R&D Systems; conditions: 10 microM Phosphoramidone; Neprilysin 1.8 μg/ml; 3 hours, 37° C.
T1 sequence (P08473 52-750 limits assumed): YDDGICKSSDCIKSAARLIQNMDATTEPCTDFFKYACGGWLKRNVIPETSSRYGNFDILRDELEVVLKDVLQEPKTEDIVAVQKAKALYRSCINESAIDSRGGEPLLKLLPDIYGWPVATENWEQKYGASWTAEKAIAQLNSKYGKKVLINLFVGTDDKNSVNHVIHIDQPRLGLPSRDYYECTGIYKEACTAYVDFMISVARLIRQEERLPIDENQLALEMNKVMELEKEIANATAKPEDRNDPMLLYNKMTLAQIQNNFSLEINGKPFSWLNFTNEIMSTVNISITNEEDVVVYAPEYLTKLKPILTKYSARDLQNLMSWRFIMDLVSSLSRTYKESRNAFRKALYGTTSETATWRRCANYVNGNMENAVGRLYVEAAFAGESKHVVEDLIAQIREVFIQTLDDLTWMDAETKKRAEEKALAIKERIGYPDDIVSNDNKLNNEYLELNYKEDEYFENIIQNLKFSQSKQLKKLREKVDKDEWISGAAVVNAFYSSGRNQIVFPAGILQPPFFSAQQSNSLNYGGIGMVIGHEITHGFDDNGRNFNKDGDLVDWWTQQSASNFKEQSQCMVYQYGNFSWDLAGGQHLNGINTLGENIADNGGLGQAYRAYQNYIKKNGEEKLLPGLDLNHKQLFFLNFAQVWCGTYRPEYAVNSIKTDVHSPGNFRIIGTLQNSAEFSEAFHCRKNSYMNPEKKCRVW
Protocol: The assay is measuring the remaining amyloid β1-40 peptide (Bachem) concentration following its incubation in the presence of Neprilysin (R&D Systems) with or without Neprilysin inhibitor. 100 μl of reaction mixture containing of amyloid β1-40 peptide (final concentration 1 or 10 μM) and/or Neprilysin (1.8 μg/ml), and/or Phosphoramidone (10 μM) was incubated in a round bottom 96-well polypropylene plate at 37° C. for 3 hours. Following incubation, 50 μl of antibodies solution containing anti-Aβ40 (final concentration 0.125 μg/ml; Biosource) and Biotinylated 6E10 (final concentration 0.125 μg/ml; Signet) antibodies was added to each well. Plate was incubated at RT for 3 h. Following incubation, 50 μl of detection mixture of Dynabeads M280 (Dynal Biotech ASA) and secondary antibody Ru-GαR (final concentration 0.132 μg/ml) was added to all wells. Plate was incubated on a shaker at RT for 1 h and results were recorded on IGEN/Bio Veris M8 analyser. Amyloid β1-40 peptide degradation by Neprilysin was calculated as a percentage of Amyloid β1-40 peptide left after incubation in the presence of Neprilysin compared to the amyloid β1-40 peptide concentration in the absence of Neprilysin.

[2] = target: T1, Human recombinant Neprilysin; test: Inhibition of added Neprilysin degradation of Aβ40 in guinea pig plasma; design: purchased R&D Systems; host or cells: enzyme added to pooled heparinized guinea pig plasma; conditions: 10 microM Phosphoramidon
Protocol: Blood was withdrawn from anaesthetized guinea pigs by heart puncture. The blood were collected into prechilled heparin-plasma tubes and centrifuged for 10 min at 4° C. at 3000×g within 20 minutes of sampling. Plasma samples were transferred to pre-chilled polypropylene tubes and immediately frozen on dry ice and stored at −70° C. prior to use. The experiments were performed on a pool of plasma from 5-6 guinea pigs.
Human recombinant Neprilysin in a buffer containing 25 mM Tris and 100 mM NaCl pH 8 (R&D Systems) or buffer only (i.e. vehicle) was incubated with guinea pig plasma at 37° C. for 0-360 minutes in presence or absents of 10 microM phosphoramidon (Biomol). A final concentration of 4.7 mM EDTA was added into the tubes before the amount of Aβ1-40 or Aβ1-42 was analyzed by using commercial ELISA kits obtained from Biosource (Aβ1-40) or Innogenetics (Aβ1-42).

amyloid β peptide = test: Two-compartment membrane experiment, degradation of amyloid β peptide; conditions: degradation in one compartment connected through a membrane
Protocol: An experiment is performed to investigate the possibility to remove amyloid β peptide from one compartment by degradation in another compartment connected through a membrane. A similar experiment was conducted using an antibody as an amyloid β peptide agent. The experiment is described by DeMattos et al., (PNAS, 2001). By degrading the amyloid β peptide with neprilysin and/or NEP-Fc in one compartment the concentration of amyloid β peptide in the other compartment is decreased. Importantly, neprilysin or NEP-Fc cannot cross the membrane due to its high molecular weight (161.000 Da and 211.000 Da, respectively).

Compound	Neprilysin activity (Aβ1-40 degradation) in the presence of inhibitor [1]	Degradation of Aβ40 by added Neprilysin in the presence of inhibitor [2]	Concentration of amyloid β peptide in the other compartment (amyloid β peptide)
CC(C)C[C@H](NP(=O)(O)O[C@@H]1O[C@@H](C)[C@H](O)[C@@H](O)[C@H]1O)C(=O)N[C@@H](Cc1c[nH]c2ccccc12)C(=O)O [Phosphoramidon]	completely abolished	inhibited	
NEP-Fc: extracellular domain of Neprilysin fused to the IgG4 Fc domain including hinge region, SEQ ID 8			decreased
